Measured values as given in US20180000085A1, “USE OF PICOLINAMIDE COMPOUNDS WITH FUNGICIDAL ACTIVITY” (DOW AGROSCIENCES LLC, priority 2014, published 2018).

Columns and labels:
[1] = tested on: Zymoseptoria tritici; assay: Leaf blotch of wheat (SEPTTR) disease control on wheat seedlings; assay type: in vivo; set-up: key to SEPTTR 1DP, HV activity at 100 ppm (% control rating) / SEPTTR 3DC, HV activity at 100 ppm (% control rating) / SEPTTR disease control, 1DP / SEPTTR disease control, 3DC / SEPTTR 1DP disease control rating, HV activity / SEPTTR 3DC disease control rating, HV activity / SEPTTR 3DC, LV activity at 125.1 g/H (% Control rating) / SEPTTR 1DP, LV activity at 125.1 g/H (% Control rating) / SEPTTR 1DP disease control rating, LV activity at 125.1 g/H / SEPTTR 3DC disease control rating, LV activity at 125.1 g/H / SEPTTR 3DC disease control rating, HV activity at 100 ppm / SEPTTR 1DP disease control rating, HV activity at 100 ppm / HV activity at 100 ppm SEPTTR 3DC (disease control rating) / HV activity at 100 ppm SEPTTR 1DP (disease control rating) / LV activity at 125.1 g/H SEPTTR 1DP (disease control rating) / LV activity at 125.1 g/H SEPTTR 3DC (disease control rating): A: > 80; B: ≤ 80; C: Not Tested; D: No Activity Observed in the Reported Assay; details: 100 ppm; for SEPTTR 1DP disease control rating, HV activity at 100 ppm / SEPTTR 3DC disease control rating, HV activity at 100 ppm: high volume application; for SEPTTR 1DP disease control rating, HV activity at 100 ppm: 1 day protectant; for SEPTTR 3DC disease control rating, HV activity at 100 ppm: 3 day curative; for HV activity at 100 ppm SEPTTR 1DP (disease control rating) / HV activity at 100 ppm SEPTTR 3DC (disease control rating): HV application, wheat leaf blotch; for HV activity at 100 ppm SEPTTR 1DP (disease control rating): 1 Day Protectant; for HV activity at 100 ppm SEPTTR 3DC (disease control rating): 3 Day Curative
[2] = tested on: Puccinia triticina; assay: Wheat brown rust (PUCCRT) disease control on wheat seedlings; assay type: in vivo; set-up: key to PUCCRT 3DC, HV activity at 100 ppm (% control rating) / PUCCRT disease control, 3DC / PUCCRT 1DP disease control rating, HV activity / PUCCRT 3DC disease control rating, HV activity / PUCCRT 3DC, LV activity at 125.1 g/H (% Control rating) / PUCCRT 1DP, LV activity at 125.1 g/H (% Control rating) / PUCCRT 3DC disease control rating, LV activity at 125.1 g/H / PUCCRT 1DP disease control rating, LV activity at 125.1 g/H / PUCCRT 3DC disease control rating, HV activity at 100 ppm / PUCCRT 1DP disease control rating, HV activity at 100 ppm / HV activity at 100 ppm PUCCRT 3DC (disease control rating) / LV activity at 125.1 g/H PUCCRT 1DP (disease control rating) / LV activity at 125.1 g/H PUCCRT 3DC (disease control rating): A: > 80; B: ≤ 80; C: Not Tested; D: No Activity Observed in the Reported Assay; details: 100 ppm; for PUCCRT 1DP disease control rating, HV activity at 100 ppm / PUCCRT 3DC disease control rating, HV activity at 100 ppm: high volume application; for PUCCRT 1DP disease control rating, HV activity at 100 ppm: 1 day protectant; for PUCCRT 3DC disease control rating, HV activity at 100 ppm: 3 day curative; for HV activity at 100 ppm PUCCRT 1DP (disease control rating) / HV activity at 100 ppm PUCCRT 3DC (disease control rating): HV application, wheat brown rust; for HV activity at 100 ppm PUCCRT 1DP (disease control rating): 1 Day Protectant; for HV activity at 100 ppm PUCCRT 3DC (disease control rating): 3 Day Curative

SMILES | SEPTTR 1DP disease control rating, HV activity at 100 ppm [1] | SEPTTR 3DC disease control rating, HV activity at 100 ppm [1] | PUCCRT 1DP disease control rating, HV activity at 100 ppm [2] | PUCCRT 3DC disease control rating, HV activity at 100 ppm [2] | HV activity at 100 ppm SEPTTR 1DP (disease control rating) [1] | HV activity at 100 ppm SEPTTR 3DC (disease control rating) [1] | HV activity at 100 ppm PUCCRT 1DP (disease control rating) [2] | HV activity at 100 ppm PUCCRT 3DC (disease control rating) [2]
COc1ccnc(C(=O)N[C@@H](C)C(=O)O[C@@H](C)[C@H](Oc2cccc(Cl)c2)C2CC2)c1O [Cmpd 1009] | A (> 80) | A (> 80) | A (> 80) | A (> 80) |  |  |  | 
COc1ccnc(C(=O)N[C@@H](C)C(=O)O[C@@H](C)[C@H](Oc2ccc(C)cc2)C2CC2)c1O [Cmpd 1010] | B (≤ 80) | B (≤ 80) | A (> 80) | A (> 80) |  |  |  | 
CCC[C@@H](Oc1ccc(C)cc1)[C@H](C)OC(=O)[C@H](C)NC(=O)c1nccc(OC)c1O [Cmpd 1012] | B (≤ 80) | B (≤ 80) | A (> 80) | A (> 80) |  |  |  | 
CCC[C@@H](Oc1cccc(OC)c1)[C@H](C)OC(=O)[C@H](C)NC(=O)c1nccc(OC)c1O [Cmpd 1013] | B (≤ 80) | B (≤ 80) | A (> 80) | A (> 80) |  |  |  | 
COc1cccc(O[C@H](C2CC2)[C@H](C)OC(=O)[C@H](C)NC(=O)c2nccc(OC)c2O)c1 [Cmpd 1014] | B (≤ 80) | B (≤ 80) | A (> 80) | A (> 80) |  |  |  | 
COc1cccc(O[C@@H]([C@H](C)OC(=O)[C@H](C)NC(=O)c2nccc(OC)c2O)C(C)(C)C)c1 [Cmpd 1015] | B (≤ 80) | B (≤ 80) | A (> 80) | A (> 80) |  |  |  | 
COc1ccnc(C(=O)N[C@@H](C)C(=O)O[C@@H](C)[C@H](Oc2ccccc2)C2CC2)c1O [Cmpd 1016] | B (≤ 80) | B (≤ 80) | A (> 80) | A (> 80) |  |  |  | 
C=CC[C@@H](OCC(=C)C)[C@H](C)OC(=O)[C@H](C)NC(=O)c1nccc(OC)c1O [Cmpd 1019] | B (≤ 80) | A (> 80) | A (> 80) | A (> 80) |  |  |  | 
C=CC[C@@H](Oc1ccc(C(F)(F)F)cc1)[C@H](C)OC(=O)[C@H](C)NC(=O)c1nccc(OC)c1O [Cmpd 1020] | B (≤ 80) | B (≤ 80) | A (> 80) | A (> 80) |  |  |  | 
C=CC[C@@H](Oc1cccc(Cl)c1)[C@H](C)OC(=O)[C@H](C)NC(=O)c1nccc(OC)c1O [Cmpd 1021] | A (> 80) | A (> 80) | A (> 80) | A (> 80) |  |  |  | 
C=CC[C@@H](Oc1cc(F)cc(Cl)c1)[C@H](C)OC(=O)[C@H](C)NC(=O)c1nccc(OC)c1O [Cmpd 1022] | D | B (≤ 80) | B (≤ 80) | A (> 80) |  |  |  | 
C=CC[C@@H](Oc1ccc(F)cc1F)[C@H](C)OC(=O)[C@H](C)NC(=O)c1nccc(OC)c1O [Cmpd 1023] | D | B (≤ 80) | A (> 80) | A (> 80) |  |  |  | 
C=CC[C@@H](OCC1CC1)[C@H](C)OC(=O)[C@H](C)NC(=O)c1nccc(OC)c1O [Cmpd 1024] | D | B (≤ 80) | B (≤ 80) | A (> 80) |  |  |  | 
CC(NC(=O)c1nccc(Br)c1O)C(=O)OC(C)C(Oc1ccccc1)C(C)C (stereo not shown) [Cmpd 1025] | D | B (≤ 80) | A (> 80) | B (≤ 80) |  |  |  | 
COc1ccnc(C(=O)NC(C)C(=O)OC(C(C)C)C(Oc2ccccc2)C(C)C)c1O (stereo not shown) [Cmpd 1031] |  |  |  |  | B (≤ 80) | D | B (≤ 80) | D
C=CC(OC(=O)C(C)NC(=O)c1nccc(OC)c1O)C(Oc1ccccc1)C(C)C (stereo not shown) [Cmpd 1033] |  |  |  |  | A (> 80) | B (≤ 80) | A (> 80) | A (> 80)
CC(C)C[C@@H](Oc1cccc(F)c1)[C@H](C)OC(=O)[C@H](C)NC(=O)c1ncccc1O [Cmpd 1035] |  |  |  |  | B (≤ 80) | D | A (> 80) | A (> 80)
CC(C)C[C@@H](Oc1cc(F)ccc1F)[C@H](C)OC(=O)[C@H](C)NC(=O)c1ncccc1O [Cmpd 1036] |  |  |  |  | B (≤ 80) | D | A (> 80) | B (≤ 80)
CC(C)C[C@@H](Oc1cccc(Cl)c1)[C@H](C)OC(=O)[C@H](C)NC(=O)c1ncccc1O [Cmpd 1037] |  |  |  |  | A (> 80) | B (≤ 80) | A (> 80) | A (> 80)
Cc1ccc(O[C@H](CC(C)C)[C@H](C)OC(=O)[C@H](C)NC(=O)c2ncccc2O)c(Cl)c1 [Cmpd 1038] |  |  |  |  | D | B (≤ 80) | A (> 80) | B (≤ 80)
CCOc1ccnc(C(=O)N[C@@H](C)C(=O)O[C@@H](C)[C@@H](CC(C)C)Oc2cccc(F)c2)c1O [Cmpd 1039] |  |  |  |  | D | B (≤ 80) | A (> 80) | A (> 80)
CCOc1ccnc(C(=O)N[C@@H](C)C(=O)O[C@@H](C)[C@@H](CC(C)C)Oc2cc(F)ccc2F)c1O [Cmpd 1040] |  |  |  |  | D | D | B (≤ 80) | A (> 80)
COc1ccnc(C(=O)N[C@@H](C)C(=O)O[C@@H](C)[C@@H](CC(C)C)OCC(C)C)c1O [Cmpd 1044] |  |  |  |  | B (≤ 80) | A (> 80) | A (> 80) | A (> 80)
COc1ccnc(C(=O)N[C@@H](C)C(=O)O[C@@H](C)[C@@H](CC(C)C)OCC2CC2)c1O [Cmpd 1045] |  |  |  |  | D | B (≤ 80) | A (> 80) | A (> 80)
COc1ccnc(C(=O)N[C@@H](C)C(=O)O[C@@H](C)[C@@H](CC(C)C)Oc2ccc3ccccc3c2)c1O [Cmpd 1046] |  |  |  |  | D | D | A (> 80) | A (> 80)
